Assay results reported in US20050191348A1 (priority 2004, published 2005).
Marks after values point to notes of the source that are not given here.

Key:
PC12 cells [1] = conditions: PC12, Aβ1-42 10 μM 24 h
MAO = conditions: Youdim et al., 2001b; cited from earlier work
sAPPα = sAPPα release into medium of SH-SY5Y neuroblastoma cells; format: cell-based, human; conditions: 1 μM, 3 h, SH-SY5Y conditioned media, mean ± SE of three experiments
Method: For the experiments, cells were seeded (2×10^6) onto 100-mm plates (for SH-SY5Y cells) or T75 flasks (for PC12 cells) in culture medium supplemented with full serum for 48 h. The cells were replaced with fresh medium containing 0.5% FCS for an additional 24 h (subconfluent culture), and then the experiments were performed in fresh medium containing 0.5% FCS for the indicated time periods at 37° C. After incubation with various drugs, the conditioned media were collected, centrifuged at 3500 g (10 min, 4° C.) to remove cell debris, and the cleared supernatants were concentrated 10-fold by lyophilization.
(vii) Determination of sAPP. Protein concentrations of cell lysates were assayed using Bradford reagent (Sigma Chemical). Equal amounts of volumes of conditioned medium, standardized to lysate protein, were subjected to […], using either the MAbs 22C11 or 6E10 in 50 mM Tris-HCl, pH 7.4, 150 mM NaCl, containing 0.05% Tween 20 and 1% BSA. Immunoreactivity was detected using anti-mouse IgG-conjugated with HRP and an enhanced chemiluminescence method (Amersham, Pharmacia Biotech, UK). Blots were developed for different times to span a linear range of response, and the relative intensity of immunoreactive bands on the exposed films was quantified by computer-assisted densitometry program (Quantity One, Bio-Rad, Hercules, Calif., USA).
It was of interest to determine whether rasagiline and other propargylamine-containing drugs also regulate APP processing. For this purpose, SH-SY5Y neuroblastoma cells were incubated for 3 h without or with 1 μM of various drugs (TV3326 and its S-isomer TV3279, rasagiline and its S-isomer TVP1022, selegiline, aminoindan), and sAPPα was measured in the media as described in Materials and Methods.
We further characterized, in detail, the effect of rasagiline on APP processing and the signaling pathways that are involved. Thus, SH-SY5Y neuroblastoma cells were incubated for 3 h without or with increasing concentrations of rasagiline (0.1, 1 and 10 μM), and sAPPα was measured in the media as described in Materials and Methods.
For the sAPPα release, SH-SY5Y neuroblastoma cells or PC12 cells were incubated for 3 h without or with increasing concentrations of propargylamine (0.1, 1 and 10 μM), and sAPPα was measured in the media as described in Materials and Methods.

PC12 cells [2] = assay: Cell death under serum deprivation (apoptotic cell death detection ELISA), PC12; format: cell-based, rat; conditions: PC12, 24 h serum deprivation, significant at 1 and 10 μM
Method: Two different neuronal cell lines were used: the rat PC12 and the human neuroblastoma SH-SY5Y cells.
PC12 cells, originated from rat pheochromocytoma, were grown to confluence in T75 flasks containing DMEM (1000 mg/l glucose) and supplemented with 5% FCS, 10% horse serum, and a mixture of 1% of penicillin/streptomycin/nystatin.
Cell cultures were incubated at 37° C. in a humid 5% CO2-95% air environment. For cell viability assays, cells were treated with various drugs in serum free media containing 0.1% BSA.
In order to test cell viability, PC12 cells and SH-SY5Y neuroblastoma cels were incubated under serum deprivation and were untreated or treated with rasagiline (0.1. 1 or 10 μM) for 24 hours.

C#CCN[C@@H]1CCc2ccccc21 [TVP1022]
protection against Aβ1-42 neurotoxicity (PC12 cells [1]): protected PC12 cells from Aβ-evoked apoptosis
fold weaker as an inhibitor of MAO than rasagiline (MAO): at least 1000 fold
sAPPα secretion (fold/basal) (sAPPα): 2.43 ± 0.27^c fold/basal
cell death induced by serum deprivation (PC12 cells [2]): protected serum deprived PC12 cells from apoptosis
